Results: US11084852B2, “Ubiquitin interacting motif peptides as therapeutics” (OKLAHOMA MEDICAL RESEARCH FOUNDATION, priority 2015, dated 2021)
Positions of bridges follow the written chain, without caps; N, C: chain ends. Non-standard residues stand in square brackets, D forms with d. Residues, ends and D or L forms follow the SMILES beside them. No end group written: not given here. *: point of attachment. FITC = O=C1OC2(c3ccc(O)cc3Oc3cc(O)ccc32)c2ccc(NC(=S)*)cc21

Tests used:
[1] = cited from earlier work
gliomas = conditions: before, at the time of or after tumor implantation; cited from earlier work
[2] = Toxicity analysis of UPI peptide, plasma biomarkers; format: in vivo, mice; set-up: ALB: unit not given here; conditions: for ALB: wild type mice, i.v. every second day up to 3 months
Experimental: Age and gender matched wild type mice were intravenously injected with PBS (Control) or different concentration of UPI peptide every second day for up to 3 months. Plasma biochemical parameters were evaluated by the UT-Southwestern Medical Center Core Facility in Dallas, Tex.

atherosclerosis lesion = experiment: Carotid atherosclerotic mouse model; format: in vivo
Source text: (§1) FIGS. 25A-E. Therapeutic potential in atherosclerosis animal models. (FIG. 25A) Targeting lyp-UIM peptide to atheroma by FITC conjugated peptide. (FIG. 25B). […] (FIG. 25C) Quantification for FIG. 25B, red bars represent lesion area by percentile; green bars represent macrophage percentile in different treatment. P values is indicated in the graphs.

atherosclerotic lesion = experiment: ApoE-/- mouse atherosclerosis model; conditions: in vivo
Source text: as §1

[3] = Kinetic analysis and FUPI peptide distribution in vivo in LLC or B16 tumor-bearing mice
Experimental: FIGS. 7A-C. Pharmacokinetics of UPI peptide in ex vivo plasma and tumor vessels. (FIG. 7A) Biotinylated-UPI peptide was incubated in ex vivo plasma at 1 μg/ml concentration. The remaining biotin-labeled UPI peptide was quantified by ELISA as indicated at different time point, n=5; (FIG. 7B) FUPI peptide (10 mg/kg, one injection) was i.v.-injected into mice bearing B16 tumors. A time course was scheduled to sacrifice mice as indicated from 2-48 hrs.
FIG. 8. FUPI peptide specifically homes to tumors. B16 tumor-bearing mice were sacrificed at 24-hr time point after control (PBS) or FUPI peptide injection (10 mg/kg, i.v-injection). Tumor and major organs were stained with CD31 (red) and imaged at red channel (CD31), blue channel (DAPI) and green channel (FUPI). Note that green (FITC) is seen only in tumors. […] Other major organs (liver, lung, heart, spleen, kidney, colon, brain, etc) are free of green color, n=4; scale bar: 200 μm.
LLC or B16 tumor-bearing mice were intravenously injected with 20 mg/kg FUPI peptide then sacrificed at different time points. […] FITC and CD31 fluorescent intensity was quantified using Metamorph software. The number of FUPI and CD31-positive vessels were counted and presented as a percentage of FUPI-positive vessels-to-total CD31-positive vessels.

HUVEC^αvβ3 cells = experiment: Targeting and localization of FITC-conjugated peptides in cultured HUVEC; format: cell-based, human
Experimental: FIGS. 6A-E. Targeting and localization of UPI peptides in cultured HUVEC^αvβ3. (FIGS. 6A-C) HUVECs were co-transfected with integrins αv and β3 plasmids by electroporation (Nucleofactor device, Lonza), generating HUVEC^αvβ3 cells. 10 μM FUPI (FITC-conjugated UPI) peptide was added to HUVEC^αvβ3 cells or pcDNA transfected control HUVECs.
To ensure targeting specificity and efficacy of the UPI, the inventors treated HUVEC overexpressing αvβ3 integrin (HUVEC^αvβ3) with FITC-conjugated UPI (FUPI) or AP-UIM (FITC-AP-UIM) (Table 2). Normal quiescent endothelial cells, such as HUVEC, express endogenous αvβ3 integrin. However, compared to tumor endothelial cells this expression is considerably lower. By overexpressing αvβ3 integrin in HUVEC, the inventors distinguished peptide targeting to endothelial cells in quiescent versus tumor vasculature. Overexpression of αvβ3 integrin was monitored by FACS and Western blotting (FIGS. 6A-C). […] Given the selective nature of the UPI peptide in vitro, the inventors next validated its tumor vascular-targeting efficacy in vivo after intravenous (i.v.) administration into Lewis lung carcinoma (LLC) and B16F10 (B16) melanoma subcutaneous tumor-bearing mice. […]

[4] = system: Lewis lung carcinoma (LLC) tumors; experiment: Subcutaneous LLC tumor model; set-up: species or system mice; conditions: mouse, in vivo
Source text: C56BL/6 mice and TRAMP prostate cancer models were obtained from Jackson Laboratory. SCID/NOD immune-deficient mice were purchased from Charles River Labs (Wilmington, Mass.). WT-Flk, EC-iDKO, EC-iDKO-Flk and EC-iDKO-Notch mice were generated by crossing conditional double knockout mice (EC-iDKO) with Flk-1^fl/fl or NICD^LSL mice as described in (FIGS. 13A-D) (Pasula et al., 2012; Tessneer et al., 2014). All animal protocols have been approved by the IACUC in Oklahoma Medical Research Foundation. Animal tumor models were established as follows: • (1) Subcutaneous Tumor Models (LLC, melanoma B16 and glioma U87/SCID): LLC, melanoma and glioma tumor models were established as previously described (Pasula et al., 2012). Synthetic peptides were administered at 10 mg/kg intravenously every second day beginning after small tumors were established (20-50 mm^3; approximately 12 days post implantation). Tumor volumes were monitored every other day until euthanized following IACUC tumor scoring system. • (2) TRAMP Prostate Tumor Model (Transgenic Adenocarcinoma of Mouse Prostate). […] Mortality rates were recorded. Prostate tumors were analyzed by weighing genitourinary tract (GU), H&E staining, IHC, IF staining and Western blotting as previously described (Pasula et al., 2012; Tessneer et al., 2013). Lymph nodes, lung, liver, spleen and bones were similarly analyzed for metastasis. • (3) B16 Melanoma Metastasis Model. […] Mice were sacrificed after 5 weeks and tissues (including lung, liver and lymph nodes, etc.) were harvested and analyzed for metastasis by gross morphology, H&E, IHC or IF staining, as well as Western blotting. • (4) Orthotopical Glioma Tumor Models (U87/SCID and GL261/C56BL/6). […] Tumors were monitored by MRI as previously described (Pasula et al., 2012). […] Tumor volume was analyzed by MRI every other day until the mice died or were euthanized following IACUC tumor scoring system. Mortality rates were recorded. […]

Q: For CC(C)(C)[N+]([O-])=Cc1ccccc1 [PBN, phenyl N-tert-butyl nitrone], which tissue distribution ([1]; rat, in vivo) is on record?
A: readily and rapidly distributed almost equally to all tissues

Q: What about the half-life ([1]; rats) of the same compound?
A: about 132 minutes

Q: What about the “tumor development (gliomas)” value (gliomas) of the same compound?
A: able to control tumor development

Q: Which results are given for CC[C@@H](C)[C@@H](NC(=O)[C@@H](CS)NC(=O)CNC(=O)[C@@H](CCSC)NC(=O)[C@@H](CCC(=O)O)NC(=O)[C@@H](CCC(=O)O)NC(=O)[C@@H](CCCCN)NC(=O)[C@@H](CO)NC(=O)[C@@H](CCSC)NC(=O)[C@@H](C)NC(=O)[C@@H](CC(C)C)NC(=O)[C@@H](C)NC(=O)[C@@H](CC(C)C)NC(=O)[C@@H](CCC(N)=O)NC(=O)[C@@H](CC(C)C)NC(=O)[C@@H](CCC(N)=O)NC(=O)[C@@H](CC(C)C)NC(=O)[C@@H](CCC(=O)O)NC(=O)[C@@H](CCC(=O)O)NC(=O)[C@@H](CCC(=O)O)NC(=O)CNC(=O)[C@H](N)CO)C(=O)N[C@H](CCCCN)C(=O)N[C@H](CO)C(=O)N[C@H](CCCCN)C(=O)N[C@H](CCCNC(=N)N)C(=O)N[C@H](CCCCN)C(=O)N[C@@H]1CSSC[C@H](C(=O)O)NC(=O)[C@@H](CC(=O)O)NC(=O)[C@H]2CCCN2C(=O)CNC(=O)[C@@H](CCCCN)NC(=O)[C@@H](CC(=O)O)NC(=O)CNC(=O)[C@@H](CCCNC(=N)N)NC1=O [UPI peptide] (H-[dS]G[dE][dE][dE][dL][dQ][dL][dQ][dL][dA][dL][dA][dM][dS][dK][dE][dE][dM]G[dC][dI][dK][dS][dK][dR][dK][dC][dR]G[dD][dK]G[dP][dD][dC]-OH; disulfide 28-36; N-terminus and C-terminus assumed)?
A: ALT ([2]; 10 mg/kg): 63.5 ± 10.8 U/L; AST ([2]; 10 mg/kg): 62.3 ± 3.6 U/L; BUN ([2]; 10 mg/kg): 18.0 ± 0.8 mg/dL; CK ([2]; 10 mg/kg): 163.5 ± 50.0 U/L; CREA ([2]; 10 mg/kg): 0.173 ± 0.02 mg/dL; GGT ([2]; 10 mg/kg): <5 U/L; LDH ([2]; 10 mg/kg): 397.8 ± 26.0 U/L; TBIL ([2]; 10 mg/kg): <0.01 mg/dL; ALT ([2]; 25 mg/kg): 65.3 ± 4.0 U/L; AST ([2]; 25 mg/kg): 55.0 ± 5.3 U/L; BUN ([2]; 25 mg/kg): 18.7 ± 2.5 mg/dL; CK ([2]; 25 mg/kg): 165.7 ± 8.6 U/L; CREA ([2]; 25 mg/kg): 0.160 ± 0.02 mg/dL; GGT ([2]; 25 mg/kg): <5 U/L; LDH ([2]; 25 mg/kg): 365.7 ± 77.9 U/L; TBIL ([2]; 25 mg/kg): <0.01 mg/dL; ALT ([2]; 50 mg/kg): 71.7 ± 6.0 U/L; AST ([2]; 50 mg/kg): 52.0 ± 4.4 U/L; BUN ([2]; 50 mg/kg): 21.0 ± 2.0 mg/dL; CK ([2]; 50 mg/kg): 153.7 ± 33.9 U/L; CREA ([2]; 50 mg/kg): 0.180 ± 0.02 mg/dL; GGT ([2]; 50 mg/kg): <5 U/L; LDH ([2]; 50 mg/kg): 481.5 ± 12.1 U/L; TBIL ([2]; 50 mg/kg): <0.01 mg/dL; kidney, liver or muscle functions (biomarker analysis, PBS vs UPI peptide-treated mice) ([2]; Table 3): no statistical differences in kidney, liver or muscle functions; ALB ([2]; 10 mg/kg): 1.98 ± 0.1; ALB ([2]; 25 mg/kg): 2.0 ± 0.1; ALB ([2]; 50 mg/kg): 2.2 ± 0.2

Q: With “CGNKRTRGCSGEEELQLQLALAMSKEE [Lyp-UIM peptide]” as the compound, how does the macrophage infiltration (atherosclerosis lesion; mouse, in vivo) read?
A: reduced macrophage infiltration

Q: What about the atherosclerosis lesion development (atherosclerosis lesion; western diet) of the same compound?
A: greatly reduced atherosclerosis lesion development

Q: And the “atherosclerotic lesion development (arch)” value (atherosclerotic lesion)?
A: significantly attenuated atherosclerotic lesion development (arch)

Q: And the “atherosclerotic lesion development (root)” value (atherosclerotic lesion)?
A: significantly attenuated atherosclerotic lesion development (root)

Q: For “FUPI: FITC-conjugated UPI peptide ({FITC}-[dS]G[dE][dE][dE][dL][dQ][dL][dQ][dL][dA][dL][dA][dM][dS][dK][dE][dE][dM]G[dC][dI][dK][dS][dK][dR][dK][dC][dR]G[dD][dK]G[dP][dD][dC]; disulfide 28-36 (inferred); not fully specified)”, which “retention within vessels of tumors after injection” value ([3]; B16 melanoma tumors, one i.v. injection) is on record?
A: up to 48 hours

Q: What about the “tissue distribution after intravenous injection” value ([3]; subcutaneous LLC or B16 melanoma tumors) of the same compound?
A: significant concentration within tumor vasculature, but not other major organs

Q: What about the “peptide accumulation in HUVEC^αvβ3 versus HUVEC” value (HUVEC^αvβ3 cells; FITC-conjugated peptide, 10 μM, 15 hr) of the same compound?
A: accumulated selectively in HUVEC^αvβ3, but not in HUVEC alone

Q: What about the “intracellular localization of accumulated peptide” value (HUVEC^αvβ3 cells; HUVEC^αvβ3) of the same compound?
A: highly enriched at the plasma membrane

Q: With “QEEEELQLALALSQSEAEEKMGCIKSKRKCRGDKGPDC [Hrs-UIM]” as the compound, how does the “tumor growth in LLC tumor-bearing mice, variant peptides” value [4] read?
A: neither Eps15-UIM nor Hrs-UIM peptides affected tumor growth

Q: Which “tumor growth in LLC tumor-bearing mice, variant peptides” value [4] does the source give for “SEEDMIEWAKRESEREEEQRMGCIKSKRKCRGDKGPDC [Eps15-UIM]” here?
A: neither Eps15-UIM nor Hrs-UIM peptides affected tumor growth
